Experimental data: the NIST ThermoML archive (doi:10.1021/je200565u)
Numbers after ± are expanded uncertainties.

Conditions: Liquid, Closed cell (Static) method

In the case of `CCCCOCCO` [2-butoxyethan-1-ol], the “vapor or sublimation pressure” value (441.3 K) is reported as 93.9 ± 0.8 kPa, the “vapor or sublimation pressure” value (441.5 K) is reported as 93.6 ± 0.8 kPa and the “vapor or sublimation pressure” value (442.1 K) is reported as 94.1 ± 0.8 kPa.
In the case of `CCCCOCCOC(C)=O` [2-butoxyethyl acetate], the “vapor or sublimation pressure” value (463 K) is reported as 93.7 ± 0.8 kPa, the “vapor or sublimation pressure” value (463.3 K) is reported as 93.6 ± 0.8 kPa and the “vapor or sublimation pressure” value (464.2 K) is reported as 93.9 ± 0.8 kPa.
With `CCOCCO` [2-ethoxyethan-1-ol] the “vapor or sublimation pressure” value (406.2 K) was 93.3 ± 0.8 kPa, the “vapor or sublimation pressure” value (406.9 K) was 93.3 ± 0.8 kPa and the “vapor or sublimation pressure” value (407.8 K) was 93.6 ± 0.8 kPa.
For `CCOCCOC(C)=O` [2-ethoxyethyl ethanoate], the “vapor or sublimation pressure” value (427.8 K) was 93.3 ± 0.8 kPa, the “vapor or sublimation pressure” value (428.3 K) was 93.7 ± 0.8 kPa and the “vapor or sublimation pressure” value (428.6 K) was 93.3 ± 0.8 kPa.
